Measurements published in patent US20250034116A1, “1,4-DIHETEROCYCLIC SUBSTITUTED AROMATIC RING OR AROMATIC HETEROCYCLIC COMPOUND AND USE THEREOF” (BeBetter Med Inc., priority 2022, published 2025).

Assays:
[1] = system: CYP enzymes in rat liver microsomes (RLM); assay: Inhibition of 20-HETE production in rat liver microsomes (RLM); format: biochemical
Summary of the method: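 Test compounds were dissolved in DMSO, diluted in acetonitrile/DMSO (3:1), and 2 μl was mixed with 100 μl potassium phosphate buffer containing rat liver microsomes in a 96-well plate. Duplicate 30 μl aliquots received 15 μl of 400 μM substrate, were preheated at 37° C. for 10 minutes, then started with 15 μl of 6 mM NADPH for 25 minutes. LC-MS/MS measured 20-HETE formation.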

[2] = system: CYP enzymes in mouse liver microsomes (MLM); assay: Inhibition of 20-HETE production in mouse liver microsomes (MLM); format: biochemical
Summary of the method: (§1)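 Liver microsomes (human or mouse) or recombinant CYP4F2 or CYP4A11 in potassium phosphate buffer mixed with compound, then with 400 μM substrate solution (stock). After 10 min preincubation at 37 °C, reaction started with 6 mM NADPH solution (stock) and run 25 min at 37 °C. 20-HETE formation quantified by LC-MS/MS; IC50 from a four-parameter Hill fit, with percent inhibition also reported at 1000, 500 or 100 nM.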

[3] = biological target: recombinant CYP4F2 (rCYP4F2) (Homo sapiens (Human), UniProt P78329); assay: Inhibition of 20-HETE production by recombinant CYP4F2; format: biochemical
Summary of the method: as §1

[4] = Pharmacokinetic (PK) experiment, oral administration in rats; format: in vivo, Male SD rats; conditions: 20 mg/kg
Summary of the method: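 Fasted male SD rats (180-250 g) received 20 mg/kg orally in 30% sulfobutylether-β-cyclodextrin. Tail-vein blood sampled 15 min to 24 h post-dose into K2-EDTA; plasma protein-precipitated with acetonitrile containing internal standard and analysed by LC-MS/MS.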

[5] = system: diet-induced obesity (DIO) mouse model; assay: Experiment 2: compound 2 and 4, weight loss and blood glucose lowering in DIO mouse model; format: in vivo, Male C57BL/6J mice
Source text: Experiment 2 was to study the effects of compound 2 and 4 on weight loss and blood glucose lowering in a diet-induced obesity (DIO) mouse model. Male C57BL/6J mice were purchased from Zhuhai BST Biotechnology Co., Ltd. and housed in a barrier system animal facility. Animals were randomly divided into 4 groups: normal control group, DIO model control group, DIO model compound 2 treatment group, and DIO model compound 4 treatment group, with 4-5 animals per group. The model control group and treatment groups were first fed with high-fat diet (HFD) for 9 weeks (day 63), and then the treatment groups were orally administered with compound 2 or compound 4 at a dose of 50 mg/kg once daily for 4 consecutive weeks, while continuing to receive HFD. Animal weights were measured weekly, and on the last day of treatment, they were fasted overnight but allowed access to water before an oral glucose tolerance test (OGTT).

[6] = system: diet-induced obesity (DIO) mouse model; assay: Experiment 4: weight loss of compound 2 compared with semaglutide in DIO mouse model; format: in vivo, Male C57BL/6J mice
Source text: Experiment 4 was to compare the weight loss effects of compound 2 with that of semaglutide in a diet-induced obesity (DIO) mouse model. Male C57BL/6J mice were purchased from Vital River Laboratories (Shanghai) Co., Ltd. and housed in a barrier system animal facility. Animals were randomly divided into 4 groups: normal control group, DIO model control group, compound 2 treatment group, and semaglutide treatment group, with 6 animals per group. The model control group and treatment groups were first fed with high-fat diet (HFD) for 18 weeks, after which the treatment groups were administered with compound 2 or semaglutide, respectively. Compound 2 was administered orally at a dose of 30 mg/kg once daily for 14 consecutive weeks, while semaglutide was administered subcutaneously at a dose of 30 nmol/kg once daily. After 7 weeks of semaglutide treatment, the semaglutide treatment group was switched to compound 2 treatment for another 7 weeks.

[7] = system: 20-HETE; assay: Experiment 5: level of 20-HETE in DIO mouse model; format: in vivo, Male C57BL/6J mice; conditions: DIO mice, single oral dose 50 mg/kg, 8 hours; most pronounced in the liver and kidneys
Protocol: (§2) Experiment 5 was to investigate the effect of compound 2 on regulating the level of 20-HETE in a diet-induced obesity (DIO) mouse model. Male C57BL/6J mice were purchased from Guangdong Vital River Laboratory Animal Technology Co., Ltd. and housed in a barrier system animal facility. After 24 weeks of high-fat diet (HFD) induction, compound 2 was administered at a dose of 50 mg/kg once, and samples were collected after 8 hours to detect the level of 20-HETE. A solvent control group was also set up simultaneously, with 3 animals per group.

[8] = system: 20-HETE; assay: Experiment 6: level of 20-HETE in DIO rat model; format: in vivo, Male SD rats; conditions: DIO rats, single oral dose 25 mg/kg, 8 hours; most pronounced in the kidneys
Protocol: as §2, with “6” for “5”, “rat” for “mouse”, “SD rats” for “C57BL/6J mice”, “14” for “24”, “25” for “50”

[9] = 50 mg/kg orally once daily for 4 weeks, DIO mice

recombinant CYP4F2 (rCYP4F2), sequence (P78329 5-520): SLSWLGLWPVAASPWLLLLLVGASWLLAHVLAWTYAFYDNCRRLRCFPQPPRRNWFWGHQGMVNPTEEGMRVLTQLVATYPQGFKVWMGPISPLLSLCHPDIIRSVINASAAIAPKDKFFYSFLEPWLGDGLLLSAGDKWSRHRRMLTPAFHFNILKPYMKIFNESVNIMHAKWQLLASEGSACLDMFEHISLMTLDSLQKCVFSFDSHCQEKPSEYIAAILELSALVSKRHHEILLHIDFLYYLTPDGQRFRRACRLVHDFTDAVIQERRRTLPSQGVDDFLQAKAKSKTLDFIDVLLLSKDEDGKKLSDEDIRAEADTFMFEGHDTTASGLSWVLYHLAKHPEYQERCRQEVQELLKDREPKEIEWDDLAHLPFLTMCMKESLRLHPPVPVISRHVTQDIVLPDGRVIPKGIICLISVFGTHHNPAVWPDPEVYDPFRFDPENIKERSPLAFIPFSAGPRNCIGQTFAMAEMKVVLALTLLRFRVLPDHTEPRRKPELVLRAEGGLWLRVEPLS

For O=C1CCCN1CC1CCN(c2ccc(-c3cn[nH]c3)cc2F)CC1 [Compound 2, 1-((1-(2-fluoro-4-(1H-pyrazol-4-yl)phenyl)piperidin-4-yl)methyl)pyrrolidin-2-one], the IC50 [1] was 103 nM, the “RLM (% inh @ 500 nM)” value ([1]; 500 nM) was 59.38% and the IC50 [2] was 1340 nM. The IC50 [3] was 15.8 nM, the “absorption and blood exposure after oral administration (in words)” value [4] was “well absorbed and exhibit high blood exposure” and the AUC(0-inf) ([4]; male, SD, rat, plasma) was 120 µg·h/mL. The Cmax ([4]; male, SD, rat, plasma) was 10100 ng/mL, the Tmax ([4]; male, SD, rat, plasma) was 3.33 h and the half-life ([4]; male, SD, rat, plasma) was 5.2 h. The AUC(0-t) ([4]; male, SD, rat, plasma, read-out: AUC0-24) was 115 µg·h/mL, the fasting blood glucose [5, 9] was “inhibit the increase in fasting blood glucose” and the “glucose metabolism (OGTT)” value [5, 9] was “enhance glucose metabolism”. The “body weight decrease, of the pre-administration weight” value ([5]; 50 mg/kg orally once daily, first week of administration, after 9 weeks HFD) was 12%-16%, the “maximum weight loss effect, decrease compared to pre-administration weight” value ([6]; 30 mg/kg orally once daily, after 6 weeks) was “approximately 36%” and the food intake ([6]; 30 mg/kg orally once daily, returned to control level in the 6th week) was “slightly decreased”. The “body weight decrease, of pre-administration weight” value ([6]; 7 weeks semaglutide, then switched to compound 2 for 7 weeks) was 33.6%, the “weight loss effect compared with semaglutide” value ([6]; DIO mouse model) was “greater weight loss effect than semaglutide” and the “20-HETE levels in the liver, kidneys, and brain tissues compared to the solvent control group” value [7] was “varying degrees of decrease”. The “20-HETE levels in the liver, kidneys, and brain tissues compared to the solvent control group” value [8] was “varying degrees of decrease”.
